What was measured:
corneal injuries = conditions: cited from earlier work
[1] = water solubility / solubilization of the compound of Formula 1; type: physicochemical

For `Nc1nc2c(nc(O)n2[C@H]2C[C@H](O)[C@@H](CO)O2)c(=O)[nH]1` [compound of Formula 1, 8-oxo-2′-deoxyguanosine], which corneal epithelial restoration (corneal injuries) is on record?
The corneal epithelial restoration was “rapid corneal epithelial restoration”.

And the “behaviour of aqueous solution obtained by heating when stored at room temperature” value ([1]; solubilized by heating, stored at room temperature)?
Its value is “precipitates”.

And the solubility ([1]; water, room temperature (about 25° C.))?
Its solubility is 1910 µg/mL.
